Laboratory results from the NIST ThermoML archive (doi:10.1021/acs.jced.6b00350).

Conditions: Liquid, Hot wire method

FC(F)CC(F)(F)F [1,1,1,3,3-pentafluoropropane]
Conditions | thermal conductivity [W/m/K]
323.16 K, 330 kPa | 0.08023
323.16 K, 19684 kPa | 0.09037
323.16 K, 19687 kPa | 0.09046
323.23 K, 13828 kPa | 0.0878
323.23 K, 13836 kPa | 0.08777
323.31 K, 8785 kPa | 0.08509
323.31 K, 8786 kPa | 0.08508
323.33 K, 69855 kPa | 0.1079
323.33 K, 69859 kPa | 0.1079
323.4 K, 58551 kPa | 0.1046
323.41 K, 58550 kPa | 0.1047
323.46 K, 49806 kPa | 0.1018
323.46 K, 49813 kPa | 0.1019
323.52 K, 40518 kPa | 0.09873
323.52 K, 40523 kPa | 0.09883
323.56 K, 33191 kPa | 0.09593
323.57 K, 33190 kPa | 0.0959
323.65 K, 26145 kPa | 0.09305
323.65 K, 26148 kPa | 0.09303
323.66 K, 4345 kPa | 0.08263
323.67 K, 4353 kPa | 0.08281
323.71 K, 19685 kPa | 0.09038
323.72 K, 19683 kPa | 0.09025
323.74 K, 330 kPa | 0.08004
323.74 K, 331 kPa | 0.08014
323.8 K, 13825 kPa | 0.08771
323.8 K, 13826 kPa | 0.08762
323.88 K, 8784 kPa | 0.08522
323.89 K, 8785 kPa | 0.08516
341.35 K, 31717 kPa | 0.09048
341.36 K, 791 kPa | 0.07387
341.36 K, 807 kPa | 0.07373
341.36 K, 31723 kPa | 0.09099
341.37 K, 4061 kPa | 0.07637
341.37 K, 4066 kPa | 0.07637
341.37 K, 8227 kPa | 0.07909
341.38 K, 8222 kPa | 0.07861
341.39 K, 12846 kPa | 0.08132
341.4 K, 12858 kPa | 0.08189
341.41 K, 18251 kPa | 0.08455
341.42 K, 18258 kPa | 0.08459
341.43 K, 24450 kPa | 0.08726
341.44 K, 24457 kPa | 0.08772
341.44 K, 39673 kPa | 0.09407
341.44 K, 39675 kPa | 0.0951
341.65 K, 48504 kPa | 0.09719
341.66 K, 48505 kPa | 0.09738
341.69 K, 58414 kPa | 0.1006
341.71 K, 58417 kPa | 0.101
341.73 K, 69248 kPa | 0.1039
341.75 K, 69269 kPa | 0.1038
341.77 K, 31709 kPa | 0.09087
341.77 K, 31711 kPa | 0.09067
341.79 K, 800 kPa | 0.07352
341.79 K, 8213 kPa | 0.07901
341.79 K, 8220 kPa | 0.07915
341.8 K, 798 kPa | 0.074
341.8 K, 4049 kPa | 0.07607
341.8 K, 4060 kPa | 0.07627
341.8 K, 12862 kPa | 0.08133
341.8 K, 18252 kPa | 0.08459
341.8 K, 18254 kPa | 0.0841
341.81 K, 12851 kPa | 0.08125
341.81 K, 24448 kPa | 0.08731
341.81 K, 24452 kPa | 0.08759
341.83 K, 39657 kPa | 0.09382
341.83 K, 39667 kPa | 0.09362
342.05 K, 48492 kPa | 0.09719
342.06 K, 48492 kPa | 0.09719
342.09 K, 58399 kPa | 0.1006
342.1 K, 58406 kPa | 0.1005
342.12 K, 69235 kPa | 0.1042
342.12 K, 69238 kPa | 0.104
342.21 K, 31695 kPa | 0.09091
342.23 K, 24443 kPa | 0.08756
342.23 K, 31701 kPa | 0.09082
342.24 K, 18254 kPa | 0.08456
342.24 K, 18263 kPa | 0.08459
342.24 K, 24457 kPa | 0.08773
342.25 K, 8211 kPa | 0.079
342.25 K, 8213 kPa | 0.0788
342.25 K, 12847 kPa | 0.08139
342.26 K, 12846 kPa | 0.08139
342.27 K, 4048 kPa | 0.07633
342.27 K, 39655 kPa | 0.09411
342.28 K, 795 kPa | 0.07417
342.28 K, 4064 kPa | 0.07591
342.28 K, 39659 kPa | 0.09393
342.29 K, 784 kPa | 0.07414
342.49 K, 48484 kPa | 0.09716
342.51 K, 48493 kPa | 0.09719
342.51 K, 58384 kPa | 0.1004
342.53 K, 58390 kPa | 0.1005
342.53 K, 69205 kPa | 0.104
342.54 K, 69218 kPa | 0.1038
342.7 K, 24435 kPa | 0.08753
342.71 K, 18288 kPa | 0.08467
342.71 K, 24437 kPa | 0.08761
342.72 K, 31697 kPa | 0.09082
342.72 K, 31698 kPa | 0.09091
342.73 K, 18277 kPa | 0.08453
342.74 K, 12836 kPa | 0.08165
342.75 K, 12854 kPa | 0.08161
342.75 K, 39640 kPa | 0.09416
342.75 K, 39649 kPa | 0.09419
342.77 K, 8198 kPa | 0.07878
342.77 K, 8214 kPa | 0.07886
342.8 K, 4060 kPa | 0.07628
342.81 K, 4048 kPa | 0.07623
342.82 K, 778 kPa | 0.074
342.83 K, 779 kPa | 0.07358
342.98 K, 48479 kPa | 0.09746
342.99 K, 48476 kPa | 0.09717
342.99 K, 58371 kPa | 0.1007
342.99 K, 69188 kPa | 0.1043
342.99 K, 69203 kPa | 0.1043
343 K, 58374 kPa | 0.1007
343.21 K, 24431 kPa | 0.0874
343.22 K, 24434 kPa | 0.0876
343.25 K, 18297 kPa | 0.0846
343.25 K, 18305 kPa | 0.08481
343.25 K, 31683 kPa | 0.09097
343.25 K, 31692 kPa | 0.09092
343.27 K, 39640 kPa | 0.09411
343.28 K, 39648 kPa | 0.09409
343.29 K, 12856 kPa | 0.08212
343.3 K, 12844 kPa | 0.08186
343.33 K, 8193 kPa | 0.07913
343.33 K, 8208 kPa | 0.07905
343.38 K, 4043 kPa | 0.07572
343.39 K, 4045 kPa | 0.07592
343.42 K, 777 kPa | 0.07373
343.43 K, 791 kPa | 0.07347
343.48 K, 69162 kPa | 0.1043
343.49 K, 69172 kPa | 0.1045
343.5 K, 48465 kPa | 0.09758
343.5 K, 58358 kPa | 0.1009
343.5 K, 58363 kPa | 0.1009
343.51 K, 48479 kPa | 0.0974
